Results published in patent US20020040005A1, “Composition and method of treating cancer” (priority 1995, published 2002).

Key:
HeLa cells = details: cited from earlier work; for cell growth: in vitro, dose dependently
Raji lymphoma cells = details: cited from earlier work; for cell growth: in vitro, dose dependently
[1] = system: 12-O-tetradecanoyl-phorbol-13-acetate (TPA) effects in mouse epidermis; details: applied topically to mouse skin; cited from earlier work
[2] = system: skin tumors promoted by TPA; details: two-step initiation-promotion protocol; cited from earlier work
[3] = system: Acute Lymphocytic Leukemia; assay: Clinical experimental trials in Cuba, voluntary patients: acute lymphocytic leukemia; format: in vivo, human; details: for time to relapse after completion of therapy: leukemia cells encysted in the testes
From the text: (§1) The following clinical data was collected on voluntary patients during clinical experimental trials in Cuba. A 10% concentration of tannic acid was used in all of the clinical studies set forth below.

Multiple Myelomas = assay: Clinical experimental trials in Cuba, voluntary patients: multiple myelomas; format: in vivo, human
From the text: as §1

Carcinoma of the Bladder = assay: Clinical experimental trials in Cuba, voluntary patients: carcinoma of the bladder; format: in vivo, human
From the text: as §1

Colon Carcinoma = assay: Clinical experimental trials in Cuba, voluntary patients: colon carcinoma; format: in vivo, human
From the text: as §1

Carcinoma of the uterus = assay: Clinical experimental trials in Cuba, voluntary patients: carcinoma of the uterus; format: in vivo, human; details: for clinical outcome: one year
From the text: as §1

Prostate Carcinoma = assay: Clinical experimental trials in Cuba, voluntary patients: prostate carcinoma; format: in vivo, human; details: 10% tannic acid
From the text: as §1

Carcinoma of penis = assay: Clinical experimental trials in Cuba, voluntary patients: carcinoma of penis; format: in vivo, human; details: Patient #11, metastasized, terminal; maximum levels after surgery, one year
From the text: as §1

Monoblastic Leukemia = assay: Clinical experimental trials in Cuba, voluntary patients: monoblastic leukemia; format: in vivo, human; details: Patient #17, no improvement with chemotherapy; maximum levels, one year
From the text: as §1

Breast carcinoma = assay: Clinical experimental trials in Cuba, voluntary patients: breast carcinoma; format: in vivo, human; details: for clinical outcome: terminal
From the text: as §1

[4] = system: Hypernephroma (Cancer of Kidney); assay: Clinical experimental trials in Cuba, voluntary patients: hypernephroma; format: in vivo, human
From the text: as §1

[5] = system: Liposarcoma of the right thigh; assay: Clinical experimental trials in Cuba, voluntary patients: liposarcoma; format: in vivo, human; details: Patient #18, two unsuccessful operations; maximum levels, one year
From the text: as §1

[6] = system: Cancerous Lesion of the Tongue; assay: Clinical experimental trials in Cuba, voluntary patients: cancerous lesion of the tongue; format: in vivo, human; details: Patient #10, conventional treatment ineffective; 3 months at stage 1 dosage
From the text: as §1

Hodgkin's Lymphoma = assay: Clinical experimental trials in Cuba, voluntary patients: Hodgkin's lymphoma; format: in vivo, human; details: Patient #14, chemotherapy discontinued, considered terminal; one year
From the text: as §1

[7] = system: epidermal PAH metabolism, PAH-induced skin tumorigenesis; details: applied topically to Sencar mice; cited from earlier work

O=C(/C=C/c1ccc(O)c(O)c1)c1ccc(O)cc1O [Butein]
growth inhibition (HeLa cells; 10 microM, cell line not stated, more effective on HeLa cells): 30%

CC1=C(/C=C/C(C)=C/C=C/C(C)=C/CO)C(C)(C)CCC1 [Retinol, reference compound]
cell proliferation (HeLa cells; 100 microM, HeLa): inhibited cell proliferation completely
cell proliferation (Raji lymphoma cells; 100 microM): inhibited cell proliferation completely

O=c1oc2c(O)c(O)cc3c(=O)oc4c(O)c(O)cc1c4c23 [ellagic acid, reference compound]
TPA-induced DNA synthesis [1]: inhibited
TPA-induced hydroperoxide production [1]: inhibited
TPA-induced ornithine decarboxylase activity [1]: inhibited
incidence and yield of skin tumors promoted by TPA [2]: inhibited

O=C(O)c1cc(O)c(O)c(O)c1 [gallic acid, reference compound]
cell growth (HeLa cells; HeLa): inhibited
cell growth (Raji lymphoma cells): inhibited

O=C(OC[C@H]1O[C@@H](OC(=O)c2cc(O)c(O)c(OC(=O)c3cc(O)c(O)c(O)c3)c2)[C@H](OC(=O)c2cc(O)c(O)c(OC(=O)c3cc(O)c(O)c(O)c3)c2)[C@@H](OC(=O)c2cc(O)c(O)c(OC(=O)c3cc(O)c(O)c(O)c3)c2)[C@@H]1OC(=O)c1cc(O)c(O)c(OC(=O)c2cc(O)c(O)c(O)c2)c1)c1cc(O)c(O)c(OC(=O)c2cc(O)c(O)c(O)c2)c1 [tannic acid]
outcome of first therapy period ([3]; Patient #8, terminal, one year at maximum dosage): Patient initially showed signs of being cured
time to relapse after completion of therapy ([3]; Patient #8): two
outcome of readministered therapy ([3]; Patient #8, year long treatment period after relapse): patient was cured
time to relapse after completion of therapy ([3]; Patient #12): about 2 years
outcome of first therapy period ([3]; Patient #12, maximum level, one year): Patient initially showed signs of being cured
outcome of readministered therapy ([3]; Patient #12, readministered for one year after relapse): Patient was cured and subsequent check-ups have been negative
overall bloodwork ([3]; Patient #13, no improvement with prior chemotherapy): immediately overall bloodwork returned to normal parameters
X-rays at the end of the therapy (Multiple Myelomas; Patient #19, metastasis in hips and ribs, maximum levels, three month period, no other therapy): actual regeneration of skeletal tissue and structure
time to death of Myeloma after stopping treatment (Multiple Myelomas; Patient #19, refused treatment after three months): four
carcinoma size by cystoscopic exam (Carcinoma of the Bladder; Patient #21, refused surgery, maximum dosage, first three month check-up): the carcinoma had diminished in size
clinical outcome (Carcinoma of the Bladder; Patient #21, at 10 months): declared cured of cancer
regular checkups (Colon Carcinoma; Patient #4, maximum therapy along with chemotherapy): all have been negative
blood work (Colon Carcinoma; Patient #4, maximum therapy simultaneously with 72 chemotherapy dosages): normal
clinical outcome (Colon Carcinoma; Patient #9, tumor not removed, no chemotherapy or radiation, maximum level, one year): Tumor disappeared and has not returned
clinical outcome (Carcinoma of the uterus; Patient #5, metastatic growth throughout internal organs, terminal, maximum levels): They were cured of the cancer throughout their body
clinical outcome (Carcinoma of the uterus; Patient #7, refused further radiation, maximum dosage, no other treatments): Semi-annual checkups reveal no relapse
outcome of readministered therapy (Carcinoma of the uterus; Patient #15, carcinoma of the uterus discovered two years after first therapy, readministered one year): They were cured of uterine cancer
clinical outcome (Prostate Carcinoma; Patient #1, inoperative, maximum dosage, first treatment period three months): Cancer was cured
catheter removal (Prostate Carcinoma; Patient #1, two weeks after initiation of therapy): catheter was removed
clinical outcome (Carcinoma of penis): They have had no relapse and is cured of the cancer
cell growth (HeLa cells; HeLa): inhibited
potency relative to gallic acid (HeLa cells; HeLa): twice as potent as its monomer gallic acid
clinical outcome (Monoblastic Leukemia): They were cured of monoblastic Leukemia and has had no relapse
potency relative to gallic acid (Raji lymphoma cells): twice as potent as its monomer gallic acid
cell growth (Raji lymphoma cells): inhibited
clinical outcome (metastatic growth after surgery) (Breast carcinoma; Patient #2, after surgery on left breast, minimal 3 month period, 10% tannic acid): No additional cancerous growths were detected anywhere in their body
tumor size (Breast carcinoma; Patient #3, tumor 5 cms by 5 cms, no surgery, maximum levels, after first three month interval, 10% tannic acid): Tumor diminished in size after first three month interval to the point where it was very difficult to detect by manual examination
long-term outcome (Breast carcinoma; Patient #3, therapy continued for one year): Cancer never returned to this day
clinical outcome (Breast carcinoma; Patient #6, metastasis in skeletal system, lungs and liver, maximum therapy, one year): they were cured of cancer in all organs
clinical outcome at end of therapy (Breast carcinoma; Patient #15, left mammary gland removed, one year): no cancer was detected
clinical outcome (Breast carcinoma; Patient #16, metastasis in both lungs and lymph nodes, maximum levels, one and one half year): the Doctor declared patient cured
skeletal finding ([4]; Patient #20, metastasis in lungs and ribs, terminal, maximum levels, after 20 days of therapy): regeneration of ribs had occurred
functional status ([4]; Patient #20, after one month of therapy): the patient had returned to normal daily activities
survival after therapy ([4]; Patient #20, therapy discontinued at three months): two
clinical outcome [5]: They were cured of cancer, and has had no relapse
clinical outcome [6]: The lesion healed and the tissue of the tongue was restored to normal
clinical outcome (Hodgkin's Lymphoma): they were cured of disease
PAH-DNA adduct formation [7]: substantial inhibition
PAH-induced skin tumorigenesis [7]: substantial inhibition
epidermal PAH metabolism [7]: substantial inhibition
TPA-induced DNA synthesis [1]: inhibited
TPA-induced hydroperoxide production [1]: inhibited
TPA-induced ornithine decarboxylase activity [1]: inhibited
incidence and yield of skin tumors promoted by TPA [2]: inhibited
